Source: patent US12528801B2 (Givaudan SA, priority 2019, dated 2026)

target: T1, hTRPM8 (Homo sapiens, UniProt Q7Z2W7); experiment: Assay on TRPM8 modulators: calcium imaging (Fluo-4, Flexstation) in HEK293 cell line stably expressing hTRPM8; type: cell-based; conditions: HEK293 cells stably expressing hTRPM8; calcium influx, Fluo-4, Flexstation 3; sigmoidal dose-response fit
T1 construct: expressed in transfected cells
Procedure: A HEK293 cell line stably expressing hTRPM8 was generated according to Klein of at, (Chem. Senses 36: […], 2011) and receptor activation was monitored by calcium imaging in a Flexstation. For Ca-imaging assays of TRPM8 channel activation, cells were seeded on day 0 at a density of 12000 cells per well in Dulbecco's modified Eagle medium (DMEM) containing 9% foetal bovine serum in black, clear bottom 96-well plates that had been coated with 0.001% polyethyleneimine (molecular weight=60 000, Acros Organics). On day 2, agonists were evaluated via calcium imaging using Fluo-4. Briefly, growth medium was discarded, and the cells were incubated in the dark for 1 h at 37° C. in 50 μL loading buffer consisting of 2.7 μM Fluo-4 AM (Invitrogen) and […] probenecid (Sigma-Aldrich) in DMEM (without serum). After incubation, the plates were washed five times with 100 μL of assay buffer (in mM: 130 NaCl, 5 KCl, 10 HEPES, 2 CaCl2, and 10 glucose, pH7.4.) and further incubated in the dark at room temperature for 30 min. The cells were then washed five times with 100 μL assay buffer and then calcium influx to serial dilutions of inventive compounds were measured in a Flexstation 3 (Molecular Devices). Receptor activation was initiated following addition of 20 μl of a 10-fold concentrated ligand stock solution, which is also prepared in assay buffer. Fluorescence was continuously monitored for 15 seconds prior to ligand addition and for 105 seconds after ligand addition, for a total of 120 seconds. Maximal receptor activation in relation to solvent control and relative to 31.6 μM menthol is determined. Data from serial dilutions were processed with a KNIME workflow to fit a sigmoidal dose-response curve and to extrapolate […].

T1 sequence (Q7Z2W7 whole entry): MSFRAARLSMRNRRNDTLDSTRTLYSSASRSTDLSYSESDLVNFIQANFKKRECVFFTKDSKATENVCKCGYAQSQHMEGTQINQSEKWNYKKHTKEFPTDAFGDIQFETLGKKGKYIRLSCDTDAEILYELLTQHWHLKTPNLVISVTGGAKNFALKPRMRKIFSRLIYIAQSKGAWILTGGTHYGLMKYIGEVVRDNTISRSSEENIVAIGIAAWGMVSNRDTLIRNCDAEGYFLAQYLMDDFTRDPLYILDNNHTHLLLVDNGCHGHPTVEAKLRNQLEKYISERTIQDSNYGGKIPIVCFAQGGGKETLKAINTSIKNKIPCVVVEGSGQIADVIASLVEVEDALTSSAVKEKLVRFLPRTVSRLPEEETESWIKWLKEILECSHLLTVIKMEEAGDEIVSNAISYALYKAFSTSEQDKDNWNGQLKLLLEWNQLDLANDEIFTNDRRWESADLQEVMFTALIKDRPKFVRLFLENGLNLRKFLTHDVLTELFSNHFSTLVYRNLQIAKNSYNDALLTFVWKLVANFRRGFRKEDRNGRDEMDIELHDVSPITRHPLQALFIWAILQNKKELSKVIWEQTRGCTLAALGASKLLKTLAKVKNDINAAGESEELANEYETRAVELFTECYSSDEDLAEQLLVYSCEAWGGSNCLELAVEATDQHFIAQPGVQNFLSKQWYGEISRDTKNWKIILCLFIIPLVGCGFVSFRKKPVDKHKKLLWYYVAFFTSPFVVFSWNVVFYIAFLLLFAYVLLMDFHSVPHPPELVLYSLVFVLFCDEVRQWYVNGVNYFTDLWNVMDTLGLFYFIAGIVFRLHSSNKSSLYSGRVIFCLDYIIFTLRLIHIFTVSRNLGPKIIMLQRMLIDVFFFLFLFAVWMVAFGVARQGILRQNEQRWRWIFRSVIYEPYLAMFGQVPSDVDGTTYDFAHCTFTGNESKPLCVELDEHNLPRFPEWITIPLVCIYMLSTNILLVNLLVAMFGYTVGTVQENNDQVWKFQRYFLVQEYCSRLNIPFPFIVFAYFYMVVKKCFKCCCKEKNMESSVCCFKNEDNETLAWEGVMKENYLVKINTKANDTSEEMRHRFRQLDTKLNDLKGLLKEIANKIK

| EC50 | SMILES |
| --- | --- |
| < 50 nM | CSC(C)C(=O)N1CCCCC1c1ncc(-c2ccc(C(C)=O)cc2)[nH]1 (stereo not shown) [Compound 74, 1-(2-(5-(4-acetylphenyl)-1H-imidazol-2-yl)piperidin-1-yl)-2-(methylthio)propan--one] |
| < 50 nM | CSC(C)C(=O)N1CCCCC1c1ncc(-c2ccc(N)cc2)[nH]1 (stereo not shown) [Compound 75, 1-(2-(5-(4-aminophenyl)-1H-imidazol-2-yl)piperidin-1-yl)-2-(methylthio)propan-1-one] |
| < 50 nM | CSC(C)C(=O)N1CCCCC1c1ncc(-c2ccc(Cl)c(F)c2)[nH]1 (stereo not shown) [Compound 76, 1-(2-(5-(4-chloro-3-fluorophenyl)-1H-imidazol-2-yl)piperidin-1-yl)-2-(methylthio)propan-1-one] |
| < 50 nM | CSC(C)C(=O)N1CCCCC1c1ncc(-c2ccc(Cl)cc2)[nH]1 (stereo not shown) [Compound 77, 1-(2-(5-(4-chlorophenyl)-1H-imidazol-2-yl)piperidin-1-yl)-2-(methyltbio)propan-1-one] |
| < 50 nM | CCc1ccc(-c2cnc(C3CCCCN3C(=O)C(C)SC)[nH]2)cc1 (stereo not shown) [Compound 78, 1-(2-(5-(4-ethylphenyl)-1H-imidazol-2-yl)piperidin-1-yl)-2-(methylthio)propan-1-one] |
| < 50 nM | CSC(C)C(=O)N1CCCCC1c1nnc(-c2ccc(F)cc2)[nH]1 (stereo not shown) [Compound 79, 1-(2-(5-(4-fluorophenyl)-4H-1,2,4-triazol-3-yl)piperidin-1-yl)-2-(methylthio)propan-1-one] |
| < 50 nM | COc1ccc(-c2cnc(C3CCCCN3C(=O)C(C)SC)[nH]2)c(C)c1 (stereo not shown) [Compound 80, 1-(2-(5-(4-methoxy-2-methylphenyl)-1H-imidazol-2-yl)piperidin-1-yl)-2-(methylthio)propan-1-one] |
| < 50 nM | COc1ccc(-c2cnc(C3CCCCN3C(=O)C(C)SC)[nH]2)cc1 (stereo not shown) [Compound 81, 1-(2-(5-(4-methoxyphenyl)-1H-imidazol-2-yl)piperidin-1-yl)-2-(methylthio)propan-1-one] |
| 300 to 1000 nM | CSc1cc(C)c(-c2cnc(C3CCCCN3C(=O)C(C)SC)[nH]2)cn1 (stereo not shown) [Compound 82, 1-(2-(5-(4-methyl-6-(methylthio)pyridin-3-yl)-1H-imidazol-2-yl)piperidin-1-yl)-2-(methylthio)propan-1-one] |
| 50 to 300 nM | COCc1cc(-c2cnc(C3CCCCN3C(=O)C(C)SC)[nH]2)cs1 (stereo not shown) [Compound 83, 1-(2-(5-(5-(methoxymethyl)thiophen-3-yl)-1H-imidazol-2-yl)piperidin-1-yl)-2-(methylthio)propan-1-one] |
| 50 to 300 nM | COc1ccc(-c2cnc(C3CCCCN3C(=O)C(C)SC)[nH]2)cn1 (stereo not shown) [Compound 84, 1-(2-(5-(6-methoxypyridin-3-yl)-1H-imidazol-2-yl)piperidin-1-yl)-2-(methylthio)propan-1-one] |
| < 50 nM | CSC(C)C(=O)N1CCCCC1c1ncc(-c2ccc3c(c2)OCO3)[nH]1 (stereo not shown) [Compound 85, 1-(2-(5-(benzo[d][1,3]dioxol-5-yl)-1H-imidazol-2-yl)piperidin-1-yl)-2-(methylthio)propan-1-one] |
| 50 to 300 nM | CCC(=O)N1CCCCC1c1ncc(-c2ccc(C)cc2)[nH]1 (stereo not shown) [Compound 86, 1-(2-(5-(p-tolyl)-1H-imidazol-2-yl)piperidin-1-yl)propan-1-one] |
| 1000 to 35000 nM | CSC(C)C(=O)N1CCCCC1c1ncc(Cc2ccccc2)[nH]1 (stereo not shown) [Compound 87, 1-(2-(5-benzyl-1H-imidazol-2-yl)piperidin-1-yl)-2-(methylthio)propan-1-one] |
| 300 to 1000 nM | CSC(C)C(=O)N1CCCCC1c1ncc(Br)[nH]1 (stereo not shown) [Compound 88, 1-(2-(5-bromo-1H-imidazol-2-yl)piperidin-1-yl)-2-(methylthio)propan-1-one] |
| 300 to 1000 nM | CSC(C)C(=O)N1CCCCC1c1ncc(-c2ccccc2C#N)[nH]1 (stereo not shown) [Compound 89, 2-(2-(1-(2-(methylthio)propanoyl)piperidin-2-yl)-1H-imidazol-5-yl)benzonitrile] |

| EC50 | SMILES |
| --- | --- |
| 50 to 300 nM | Cc1ccc(C(C)C(=O)N2CCCCC2c2nc(-c3ccccc3)c[nH]2)o1 (stereo not shown) [Compound 91, 2-(5-methylfuran-2-yl)-1-(2-(4-phenyl-1H-imidazol-2-yl)piperidin-1-yl)propan-1-one] |
| < 50 nM | C=CCSC(C)C(=O)N1CCCCC1c1ncc(-c2ccc(C)cc2)[nH]1 (stereo not shown) [Compound 92, 2-(allylthio)-1-(2-(5-(p-tolyl)-1H-imidazol-2-yl)piperidin-1-yl)propan-1-one] |
| 1000 to 35000 nM | CCC(C(=O)N1CCCCC1c1nc(-c2ccccc2)c[nH]1)N(C)C (stereo not shown) [Compound 93, 2-(dimethylamino)-1-(2-(4-phenyl-1H-imidazol-2-yl)piperidin-1-yl)butan-1-one] |
| 300 to 1000 nM | C[C@H](C(=O)N1CCCCC1c1nc(-c2ccccc2)c[nH]1)N(C)C (stereo partly drawn) [Compound 94, (2R)-2-(dimethylamino)-1-(2-(4-phenyl-1H-imidazol-2-yl)piperidin-1-yl)propan-1-one] |
| 1000 to 35000 nM | O=C(Cc1ccco1)N1CCCCC1c1nc(-c2ccccc2)c[nH]1 (stereo not shown) [Compound 96, 2-(furan-2-yl)-1-(2-(4-phenyl-1H-imidazol-2-yl)piperidin-1-yl)ethan-1-one] |
| 50 to 300 nM | CC(C(=O)N1CCCCC1c1nc(-c2ccccc2)c[nH]1)c1ccco1 (stereo not shown) [Compound 97, 2-(furan-2-yl)-1-(2-(4-phenyl-1H-imidazol-2-yl)piperidin-1-yl)propan-1-one] |
| 50 to 300 nM | O=C(Cc1ccoc1)N1CCCCC1c1nc(-c2ccccc2)c[nH]1 (stereo not shown) [Compound 98] |
| < 50 nM | Cc1ccc(-c2cnc(C3CCCCN3C(=O)C(C)c3ccoc3)[nH]2)cc1 (stereo not shown) [Compound 99, 2-(furan-3-yl)-1-(2-(5-(p-tolyl)-1H-imidazol-2-yl)piperidin-1-yl)propan-1-one] |
| 50 to 300 nM | CNCC(=O)Nc1ccc(-c2cnc(C3CCCCN3C(=O)C(C)SC)[nH]2)cc1 (stereo not shown) [Compound 100, 2-(methylamino)-N-(4-(2-(1-(2-(methylthio)propanoyl)piperidin-2-yl)-1H-imidazol-5-yl)phenyl)acetamide] |
| 50 to 300 nM | Cc1ccc(-c2cnc(C3CCCCN3C(=O)C(C)[S+](C)[O-])[nH]2)cc1 (stereo not shown) [Compound 101, 2-(methylsulfinyl)-1-(2-(5-(p-tolyl)-1H-imidazol-2-yl)piperidin-1-yl)propan-1-one] |
| 1000 to 35000 nM | CS(=O)(=O)CC(=O)N1CCCCC1c1nc(-c2ccccc2)c[nH]1 (stereo not shown) [Compound 102, 2-(methylsulfonyl)-1-(2-(4-phenyl-1H-imidazol-2-yl)piperidin-1-yl)ethan-1-one] |
| 1000 to 35000 nM | CC(C(=O)N1CCCCC1c1nc(-c2ccccc2)c[nH]1)S(C)(=O)=O (stereo not shown) [Compound 103, 2-(methylsulfonyl)-1-(2-(4-phenyl-1H-imidazol-2-yl)piperidin-1-yl)propan-1-one] |
| < 50 nM | CSC(C)C(=O)N1CCCCC1c1nnn(-c2ccc(C)cc2)n1 (stereo not shown) [Compound 104, 2-(methylthio)-1-(2-(2-(p-toly)-2H-tetrazol-5-yl)piperidin-1-yl)propan-1-one] |
| 300 to 1000 nM | CSC(C)C(=O)N1CCCCC1c1nc(-c2ccccc2)no1 (stereo not shown) [Compound 105, 2-(methylthio)-1-(2-(3-phenyl-1,2,4-oxadiazol-5-yl)piperidin-1-yl)propan-1-one] |
| 50 to 300 nM | CSC(C)C(=O)N1CCCCC1c1nc(-c2cnn(C(F)(F)F)c2)c[nH]1 (stereo not shown) [Compound 106, 2-(methylthio)-1-(2-(4-(1-(trifluoromethyl)-1H-pyrazol-4-yl)-1H-imidazol-2-yl)piperidin-1-yl)propan-1-one] |
